In patent US20160346255A1, “METHODS, AGENTS AND COMPOSITIONS FOR TREATMENT OF INFLAMMATORY CONDITIONS” (Betanien Hospital, priority 2014, published 2016):
Non-standard residues stand in square brackets, D forms with d. Residues, ends and D or L forms follow the SMILES beside them. *: point of attachment. dPhe(4-NHCONH2) = NC(=O)Nc1ccc(C[C@@H](N)C(=O)O)cc1; Dihydroorotyl(S) = O=C1C[C@@H](C(=O)*)NC(=O)N1; dPhe(4-Cl) = N[C@H](Cc1ccc(Cl)cc1)C(=O)O; Phe(4-NH2) = Nc1ccc(C[C@H](N)C(=O)O)cc1; d2Nal = N[C@H](Cc1ccc2ccccc2c1)C(=O)O; Lys(iPr) = CC(C)NCCCC[C@H](N)C(=O)O; d3Pal = N[C@H](Cc1cccnc1)C(=O)O

Assays:
Type in all cases: in vivo, human
Patient with Lupus = assay: Lupus patient treated with degarelix (and earlier therapies)
Description: Example of Treating a Patient with Lupus with a GnRH Antagonist
Due to their painful condition, they have been followed up by a pain clinic. They were offered a tricyclic antidepressant, amitriptyline 25 mg in March 2014 for their painful condition.
Therefore, we decided to offer […] degarelix. GnRH antagonists have shown anti-inflammatory effects and therefore we considered that degarelix, a depot GnRH antagonist, may have a therapeutic effect in lupus. 09.15.14, […] received […] loading dose of degarelix, 240 mg s.c.
They received their second dose of degarelix in October 2014, 80 mg s.c. They continue on 80 mg s.c. every two weeks.

Patient with Psoriasis = assay: Psoriasis patient treated with degarelix
Description: The PASI score is a standardized score for assessing disease activity in psoriasis.
He therefore received testosterone supplementation in the form of Testogel containing 50 mg of testosterone, first daily; thereafter every 3 days to maintain testosterone levels within the normal range.
One trial examined 15 patients with psoriasis who were taking lithium.

[1] = tested on: Patient with Multiple Sclerosis; assay: Multiple sclerosis patient treated with degarelix (with concomitant fampridine)
Description: • person, diagnosed with multiple sclerosis (MS). Their MS was of the progressive type; characterized by a steady deterioration in function. • Fulfilled the 2010 McDonald Criteria for the diagnosis of MS (1).
• So far results of clinical trials for progressive MS have generally been disappointing. Currently, there is no FDA-approved treatment for progressive MS disease. • December 2014 received first dose of degarelix 240 mg s.c. • Received degarelix 80 mg s.c. every two weeks thereafter.
• This patient's EDSS has remained stable at 6.5, as expected over such a short time period of 6 weeks. A score of 6.5 is equivalent to only being able to walk with the aid of a walker, as in their case. This was evident at baseline and 6 weeks.
• Patient-reported outcomes are of increasing importance in trials of progressive multiple sclerosis (2). The most frequently used global patient-reported outcome in multiple sclerosis is the MSIS-29 (3). This has been correlated with clinical and imaging metrics specifically in progressive forms of the disease (4). According to a recent review (2), patient reported outcomes in trials of progressive multiple sclerosis can be used to validate MRI or clinical metrics, and increased use of patient-reported outcomes in trials of progressive multiple sclerosis will be expected to help satisfy regulators' requirements that treatments show relevant benefit for patients. • At baseline, they scored 121 on the MSIS-29. By 6 weeks, their score was reduced to 110. A clinically significant minimal difference is a score change of 8. Therefore this reduction of 11 in their score is considered clinically significant (5).
• The MSWS-12 (6) was designed as a disease-specific patient-based instrument for use in clinical trials and clinical practice, to capture the complex impact of MS on walking ability. […] One of the most important attributes of the MSWS-12 in comparison to other assessments of walking in MS patients is its responsiveness to change. […] By 6 weeks, their score was reduced to 53. This is a 12% improvement. A minimal clinically significant difference has not yet been established.
• The MFIS-5 is a modified form of the Fatigue Impact Scale (10) based on items derived from interviews with MS patients concerning how fatigue impacts their lives. This instrument provides an assessment of the effects of fatigue in terms of physical, cognitive, and psychosocial functioning. • At baseline, they scored 20 on the MFIS-5. By 6 weeks, their score was reduced to 12. This was a reduction of 40%, which is clinically significant.
• The T25FW is another common endpoint in trials. At baseline, they took 16.7 seconds to walk 25 feet, and by 6 weeks they took 15.2 seconds. This improvement in walking speed supports the patient's reported improved outcomes. […] This improvement in progressive MS is likely to also be observed in the relapsing-remitting type of MS. This is because the relapsing-remitting type gives similar signs and symptoms as the progressive type to patients over time.
• For the last 2.5 years, they had been taking stable concomitant fampridine, a potassium channel blocker, for symptomatic treatment for MS. Their MS disease activity had been increasing gradually over these 2.5 years, requiring them to use crutches, and eventually a walker. In December 2014, they started experimental treatment with degarelix. […] They describe in an interview that for the first time they could easily complete certain exercises with their under extremities that they had previously never been able to do during their physiotherapy visits. • Due to this effect, they decided to discontinue their long-term stable fampridine medication on 05.04.15. […] This improvement in progressive MS is likely to also be observed in the relapsing-remitting type of MS. This is because the relapsing-remitting type gives similar signs and symptoms as the progressive type to patients over time.

[2] = progressive MS patient, by 6 weeks

CC(=O)N[C@H](Cc1ccc2ccccc2c1)C(=O)N[C@H](Cc1ccc(Cl)cc1)C(=O)N[C@H](Cc1cccnc1)C(=O)N[C@@H](CO)C(=O)N[C@@H](Cc1ccc(NC(=O)[C@@H]2CC(=O)NC(=O)N2)cc1)C(=O)N[C@H](Cc1ccc(NC(N)=O)cc1)C(=O)N[C@@H](CC(C)C)C(=O)N[C@@H](CCCCNC(C)C)C(=O)N1CCC[C@H]1C(=O)N[C@H](C)C(N)=O [degarelix] (Ac-[d2Nal][dPhe(4-Cl)][d3Pal]S[Phe(4-NH2)](Dihydroorotyl(S))[dPhe(4-NHCONH2)]L[Lys(iPr)]P[dA]-NH2)
Total urinary protein (Patient with Lupus; 7 Nov. 2014, 15 Sep. 2014 0.78): 0.17 g/L
LH (<12) (Patient with Lupus; 7 Nov. 2014, 15 Sep. 2014 11): <0.3
FSH (<12) (Patient with Lupus; 7 Nov. 2014, 15 Sep. 2014 14): <0.1
ANA (<1) (Patient with Lupus; 7 Nov. 2014, 15 Sep. 2014 >32 out of range): 26↑
Total urinary protein (Patient with Lupus; 14 Oct. 2014, 15 Sep. 2014 0.78): 0.15 ^2 g/L
FSH (<12) (Patient with Lupus; 14 Oct. 2014, 15 Sep. 2014 14): <0.1
ANA (<1) (Patient with Lupus; 14 Oct. 2014, 15 Sep. 2014 >32 out of range): 28↑
Total urinary protein (Patient with Lupus; 23 Sep. 2014, 15 Sep. 2014 0.78): 0.75 ↑ g/L
LH (<12) (Patient with Lupus; 23 Sep. 2014, 15 Sep. 2014 11): <0.3
FSH (<12) (Patient with Lupus; 23 Sep. 2014, 15 Sep. 2014 (loading dose day) 14): 2
ANA (<1) (Patient with Lupus; 25 Sep. 2014, 15 Sep. 2014 >32 out of range): 31 ↑
Parasthesias (Patient with Lupus; by 1 month of treatment, balance improved): no longer has parasthesias
Proteinuria (Patient with Lupus; by 1 month, still in remission at 2 months): complete remission
Morning pain (Patient with Lupus; by 8 weeks, before 3.5 hours): 0 h
Morning pain (Patient with Lupus; by day 5, before 3.5 hours): 1.5 h
Morning pain (Patient with Lupus; by day 10, before 3.5 hours): 0 h
Ulcers on toes and hands (Patient with Lupus; by day 10 of treatment): several ulcers had healed
Foot erythema (Patient with Lupus; week 8 (FIG. 8)): decreased
Testosterone (normal 8-35 nmol/L) (Patient with Psoriasis; after the first week, before 12 nmol/L): < 1 nmol/L
Improvement in psoriasis (Patient with Psoriasis; at 6 months): stable
PASI absolute reduction (Patient with Psoriasis; by 8 weeks): 12.3 points
PASI reduction (Patient with Psoriasis; by 8 weeks): 23%
PASI score (Patient with Psoriasis; by 8 weeks, baseline 53.6): 41.3
Testosterone (normal 8-35 nmol/L) (Patient with Psoriasis; week 8, under testosterone substitution (Testogel)): 9 nmol/L
Timed walk test ([1]; MS patient, 29.4.15, after fampridine discontinued 05.04.15, from 11.9): 14.0 s
Expanded Disability Status Scale (EDSS) ([1]; progressive MS patient, 6 weeks, stable vs baseline): 6.5
MFIS-5 reduction [1, 2]: 40%
MSIS-29 score reduction [1, 2]: 11
MSWS-12 improvement [1, 2]: 12%
MFIS-5 score ([1]; progressive MS patient, by 6 weeks, baseline 20): 12
MSWS-12 score ([1]; progressive MS patient, by 6 weeks, baseline 60): 53
MSIS-29 score ([1]; progressive MS patient, by 6 weeks, baseline 121): 110
Timed 25 Foot Walk (T25FW) ([1]; progressive MS patient, by 6 weeks, stable fampridine, baseline 16.7): 15.2 s
General function (patient reported) ([1]; progressive MS patient, from around 4 weeks, further by 6 weeks): general improvement
